Reference: patent publication US20110287470A1, “CELL CULTURE METHOD TO FORM AGGREGATES” (priority 2008, published 2011)

Tested on: cardiac tissue generated from cardiomyocytes derived from human ESCs
Assay: Multi-electrode array electrophysiological recordings of CardioSpot cardiac tissue
Format: cell-based
Settings: for repolarising potential (delay measured from the first signal): control 140 ms, FIG. 8
Experimental: CardioSpot made using primary or stem cell derived cardiomyocytes are placed onto the porous MEAs. Electrophysiological recordings were performed either through the supporting membrane or from under the membrane in order to get a direct contact of the tissues with recording electrodes. Control recording were performed using the culture medium as well a the solution used for reference molecules ([…], and lidocaine) Pharmacological experiments were carried out using reference compounds to characterise and validate the cardiac tissue generated from cardiomyocytes derived from human ESCs and engineered using the method of invention.

SMILES | repolarising potential (delay measured from the first signal) (30 nM E4031, after 5 min) | repolarising potential (delay measured from the first signal) (30 nM E4031, after 15 min) | decrease of the amplitude of the electrophysiological signals (30 uM lidocaine, after 6 minutes, FIG. 7) | amplitude of the first signal (predominantly dependent on sodium channel opening) (lidocaine, within few minutes, FIG. 7)
Cc1cccc(CCN2CCC(C(=O)c3ccc(NS(C)(=O)=O)cc3)CC2)n1 [E4031] | 155 ms | 173 ms |  | 
CCN(CC)CC(=O)Nc1c(C)cccc1C [lidocaine] |  |  | 50% | dramatic decrease of the amplitude
